# Structures can show the parent of a compound that is named as a salt. Where two headings read alike, the source gives them in different places. Marks after values point to notes of the source that are not given here.
# Legend:
# [1] = Rat plasma metabolite profiles after single oral 5 mg/kg [14C]DCDQ; assay type: in vivo, Sprague-Dawley rats; settings: for concentration at 2 h / concentration at 8 h / concentration at 4 h: Sprague-Dawley, rat, plasma, mean n = 3, read-out: Estimated plasma concentration in rats; for Chromatographic distribution of radioactivity in rat plasma / Estimated plasma concentration in rats: mean n = 3
# Procedure: Plasma samples were analyzed for metabolite profiles by HPLC. Aliquots of 1.5 mL plasma were mixed with 3.0 mL methanol, placed on ice for about 10 minutes, and then centrifuged. The supernatant was transferred to a clean tube. The protein pellets were extracted once with 3.0 mL methanol. The supernatants from precipitation and extraction of each sample were pooled, mixed, and evaporated at 22° C. under nitrogen in a Zymark TurboVap LV (Caliper Life Sciences, Hopkinton, Mass.) to about 0.3 mL. The concentrated extract was centrifuged, the supernatant volume measured and extraction efficiency was determined by analyzing duplicate 10 μL aliquots for radioactivity. An aliquot of the supernatant (50-200 μL) was analyzed by HPLC with radioactivity flow detection. Plasma extracts were also analyzed by LC/MS.
# (§1) A Waters model 2690 HPLC system (Waters Corp., Milford, Mass.) with a built-in autosampler was used for analysis. Separations were accomplished on a Phenomenex Luna C18(2) column (150×2.0 mm, 5 μm) (Phenomenex, Torrance, Calif.). The sample chamber of the autosampler was maintained at 4° C., while the column was at ambient temperature of about 20° C. A variable wavelength UV detector set to monitor 250 nm and a Flo-One β Model A525 radioactivity detector described above were used for data acquisition. The HPLC mobile phase consisted of 10 mM ammonium acetate, pH 4.5 (A) and methanol (B), and was delivered at 0.2 mL/min. Chromatographic condition A was used for dose analysis, while condition B was used for analysis of urine and plasma, brain and fecal extracts.
# [2] = Rat urinary excretion and metabolite profiles after single oral 5 mg/kg [14C]DCDQ; assay type: in vivo, Sprague-Dawley rats; settings: oral 5 mg/kg, mean n = 3
# Procedure: (§2) At sacrifice, blood samples were collected by cardiac puncture into tubes containing EDTA as the anticoagulant and placing them on ice. Aliquots of 50 μL were removed for combustion and determination of radioactivity content. Plasma was immediately obtained from the remaining blood by centrifugation at 4° C. Brains were excised after perfusion with 50 mL of chilled sterile saline. Urine samples were collected on dry ice at intervals of 0-8 and 8-24 hour post-dosing. Feces were collected at intervals of 0-8 and 8-24 hr post-dosing at room temperature and were homogenized as described previously. The biological specimens and aliquots of the dosing solution at pre- and post-dose were stored at approximately −70° C. until analyzed.
# Plasma (20 μL) and urine (50 μL) aliquots were analyzed for radioactivity concentrations. Radioactivity determinations of dose, plasma and urine were made with a Tri-Carb Model 3100 TR/LL liquid scintillation counter (LSC) (Perkin Elmer) using 10 mL of Ultima Gold as the scintillation fluid.
# Urine was analyzed for radioactivity concentration as and analyzed for metabolite profiles by direct injection onto the HPLC column. LC/MS analyses for metabolite identification were also carried out with urine samples.
# as §1
# [3] = Metabolites of DCDQ identified in rats by LC/MS analysis (Table 18); assay type: in vivo, Sprague-Dawley rats; settings: P = plasma, U = urine, B = brain, F = feces
# Procedure: An Agilent Model 1100 HPLC system (Agilent Technologies, Wilmington, Del.) including an autosampler and diode array UV detector was used for LC/MS analysis of plasma and urine samples. The UV detector was set to monitor 200 to 400 nm. For selected LC/MS analyses, radiochromatograms were acquired using a β-Ram model 3 radioactivity flow detector (IN/US Systems Inc., Tampa, Fla.) equipped with a solid scintillant flow cell. Fecal samples were also analyzed using a Waters Alliance model 2690 HPLC system. It was equipped with a built-in autosampler and a model 996 diode array UV detector set to 210-350 nm. The HPLC flow was split between a Radiomatic model 150TR flow scintillation analyzer (Perkin Elmer) and the mass spectrometer. Other HPLC conditions were the same as condition B described above.
# The mass spectrometer used for metabolite characterization for plasma and urine was a Micromass Q-TOF-2 quadrupole time-of-flight hybrid mass spectrometer (Waters). The mass spectrometer was equipped with an electrospray ionization (ESI) interface and operated in the positive ionization mode. Collision energy settings of 5 and 30 eV were used for full MS and MS/MS scans, respectively. Settings for the mass spectrometer are listed below.
# A Micromass Quattro Micro mass spectrometer (Waters) was also used to analyze the fecal samples. It was equipped with an electrospray ionization (ESI) interface and operated in the positive ionization mode. Settings for the mass spectrometer are listed below.
# LC/MS/MS in the selected reaction-monitoring (SRM) mode (LC/SRM) was conducted with the triple quadruple mass spectrometer to monitor DCDQ and its metabolites in fecal samples. The transitions monitored are listed below.
# [4] = Rat fecal excretion and metabolite profiles after single oral 5 mg/kg [14C]DCDQ; assay type: in vivo, Sprague-Dawley rats; settings: male rats, 8-24 hour fecal extracts
# Procedure: as §2
# Brain and fecal samples were weighed and homogenized in water at volume-to-weight ratios of about 1:1 and 5:1, respectively. Blood aliquots (50 μL), brain homogenates (0.1 gram) and fecal homogenates (0.2 gram) were placed on Combusto-cones with Combusto-pads and combusted. A model 307 Tri-Carb Sample Oxidizer, equipped with an Oximate-80 Robotic Automatic Sampler (Perkin Elmer), was used for combustion. The liberated ^14CO2 was trapped with Carbo-Sorb E carbon dioxide absorber, mixed with PermaFluor® E+ liquid scintillation cocktail, and counted in a Tri-Carb Model 3100 TR/LL liquid scintillation counter (Perkin Elmer). The oxidation efficiency of the oxidizer was 98.2%.
# (§3) Fecal homogenates were analyzed for metabolite profiles. Aliquots of 1 gram of fecal homogenates were mixed with 2 mL methanol, placed on ice for about 10 minutes and centrifuged. The supernatant was transferred to a clean tube. The residue was extracted three times with 2 mL of a water:methanol (3:7) mixture. The supernatants of each sample were combined, evaporated to about 1 mL, and centrifuged. Extraction efficiency was determined by analyzing aliquots of 10 μL of the supernatant for radioactivity. An aliquot (50-200 μL) of the supernatant was analyzed by HPLC with radioactivity flow detection for profiling. Samples were also analyzed by LC/MS to characterize the radioactive peaks.
# as §1, with “Chromatographic condition A was used for dose analysis, while condition B was used for analysis of urine and plasma, brain and fecal extracts.” left out
# [5] = Dog fecal excretion and metabolite profiles after oral capsule of [14C]DCDQ; assay type: in vivo, beagle dogs
# Procedure: Blood samples were collected from the jugular vein at 2, 4, 8, 24 and 48 hour after dose administration into tubes containing potassium EDTA as the anticoagulant and then placed on ice. Aliquots of 50 μL were removed for combustion and determination of radioactivity content. Plasma was immediately obtained from the remaining blood by centrifugation at 4° C. Urine samples were collected into tubes on dry ice at intervals of 0-8, 8-24 and 24-48 hour post-dose. Fecal samples were collected at intervals of 0-8, 8-24 and 24-48 hour post-dose at room temperature, and were homogenized. The biological specimens were stored at approximately −70° C. until analysis.
# Feces were weighed and homogenized in water at a volume-to-weight ratio of about 5:1. Aliquots of blood (200 μL) and fecal homogenates (0.25-0.53 gram) were placed on Combusto-cones with Combusto-pads and combusted. A model 307 Tri-Carb sample oxidizer, equipped with an Oximate-80 robotic automatic sampler (Perkin Elmer), was used for combustion of blood and fecal samples. The liberated ^14CO2 was trapped with Carbo-Sorb E carbon dioxide absorber, mixed with PermaFluor® E+ liquid scintillation cocktail, and counted on a Tri-Carb Model 3100 TR/LL liquid scintillation counter (Perkin Elmer). The efficiency of combustion was 98.9%.
# as §3, with “fecal homogenate” for “fecal homogenates”, “supernatants from” for “supernatants of”, “for metabolite profiles.” for “for profiling.”
# as §1, with “detector” for “detector described above”, “acetonitrile” for “methanol”
structure (smiles),measurement,setting,value
"OC1CNCc2cccc3c2N1C[C@@H]1CCC[C@H]31 (some centres unmarked) [Metabolite M10, hydroxy DCDQ]",concentration at 2 h,"[1]; female, 2 hr",35.2 ng/mL
same,concentration at 8 h,"[1]; female, 8 hr",18.9 ng/mL
same,concentration at 2 h,"[1]; male, 2 hr",23.7 ng/mL
same,concentration at 4 h,"[1]; male, 4 hr",9.81 ng/mL
same,concentration at 8 h,"[1]; male, 8 hr",13.2 ng/mL
same,Chromatographic distribution of radioactivity in rat plasma,"[1]; female, 2 hr",5.2%
same,Chromatographic distribution of radioactivity in rat plasma,"[1]; female, 8 hr",5.6%
same,Chromatographic distribution of radioactivity in rat plasma,"[1]; male, 2 hr",3.6%
same,Chromatographic distribution of radioactivity in rat plasma,"[1]; male, 4 hr",1.5%
same,Chromatographic distribution of radioactivity in rat plasma,"[1]; male, 8 hr",3.0%
same,Chromatographic distribution of radioactivity in male rat urine,[2]; 0-8 hr,3.32%
same,Percentage of dose for urinary metabolites in rats,[2]; 0-8 hr,1.08%
same,Percentage of dose for urinary metabolites in rats,[2]; 0-24 hr,1.99%
same,Chromatographic distribution of radioactivity in male rat urine,[2]; 8-24 hr,2.70%
same,Percentage of dose for urinary metabolites in rats,[2]; 8-24 hr,0.91%
same,Matrix,[3],"U, B, F"
"CC(=O)N1Cc2cccc3c2N(C[C@@H]2CCC[C@H]32)C(O)C1 (some centres unmarked) [Metabolite M11, acetylated hydroxy DCDQ]",concentration at 2 h,"[1]; female, 2 hr",41 ng/mL
same,concentration at 8 h,"[1]; female, 8 hr",16.6 ng/mL
same,concentration at 2 h,"[1]; male, 2 hr",37.2 ng/mL
same,concentration at 4 h,"[1]; male, 4 hr",34.5 ng/mL
same,concentration at 8 h,"[1]; male, 8 hr",16.3 ng/mL
same,Chromatographic distribution of radioactivity in rat plasma,"[1]; female, 2 hr",6.1%
same,Chromatographic distribution of radioactivity in rat plasma,"[1]; female, 8 hr",4.9%
same,Chromatographic distribution of radioactivity in rat plasma,"[1]; male, 2 hr",6.0%
same,Chromatographic distribution of radioactivity in rat plasma,"[1]; male, 4 hr",5.2%
same,Chromatographic distribution of radioactivity in rat plasma,"[1]; male, 8 hr",3.6%
same,relative abundance in fecal extracts,[4],major metabolites
same,Matrix,[3],"P, B, F"
"O=S(=O)(O)N1CCN2C[C@@H]3CCC[C@@H]3c3cccc(c32)C1 [Metabolite M12, DCDQ sulfamate]",concentration at 2 h,"[1]; female, 2 hr",33.8 ng/mL
same,concentration at 8 h,"[1]; female, 8 hr",11.8 ng/mL
same,Chromatographic distribution of radioactivity in rat plasma,"[1]; female, 2 hr",5.2^e %
same,Chromatographic distribution of radioactivity in rat plasma,"[1]; female, 8 hr",3.3%
same,Chromatographic distribution of radioactivity in rat plasma,"[1]; male, 2 hr",BQL^c
same,Estimated plasma concentration in rats,"[1]; male, 2 hr",BQL^c
same,Chromatographic distribution of radioactivity in rat plasma,"[1]; male, 4 hr",BQL
same,Estimated plasma concentration in rats,"[1]; male, 4 hr",BQL
same,Chromatographic distribution of radioactivity in rat plasma,"[1]; male, 8 hr",BQL
same,Estimated plasma concentration in rats,"[1]; male, 8 hr",BQL
same,Matrix,[3],"P, U"
"O=S(=O)(O)OC1CC[C@@H]2c3cccc4c3N(CCNC4)CC12 (some centres unmarked) [Metabolite M13, 17-hydroxy DCDQ sulfate]",concentration at 2 h,"[1]; female, 2 hr",16.6 ng/mL
same,concentration at 8 h,"[1]; female, 8 hr",5.62 ng/mL
same,concentration at 2 h,"[1]; male, 2 hr",11.6 ng/mL
same,concentration at 4 h,"[1]; male, 4 hr",14.2 ng/mL
same,concentration at 8 h,"[1]; male, 8 hr",6.33 ng/mL
same,Chromatographic distribution of radioactivity in rat plasma,"[1]; female, 2 hr",2.6%
same,Chromatographic distribution of radioactivity in rat plasma,"[1]; female, 8 hr",1.6%
same,Chromatographic distribution of radioactivity in rat plasma,"[1]; male, 2 hr",1.9%
same,Chromatographic distribution of radioactivity in rat plasma,"[1]; male, 4 hr",2.2%
same,Chromatographic distribution of radioactivity in rat plasma,"[1]; male, 8 hr",1.4%
"O=S(=O)(O)N1CCN2CC3=CCC=C3c3cccc(c32)C1 [Metabolite M14, di-dehydro DCDQ sulfamate]",concentration at 2 h,"[1]; female, 2 hr",25.1 ng/mL
same,concentration at 8 h,"[1]; female, 8 hr",16.5 ng/mL
same,Chromatographic distribution of radioactivity in rat plasma,"[1]; female, 2 hr",4.0^d %
same,Chromatographic distribution of radioactivity in rat plasma,"[1]; female, 8 hr",4.9^d %
same,Chromatographic distribution of radioactivity in rat plasma,"[1]; male, 2 hr",BQL
same,Estimated plasma concentration in rats,"[1]; male, 2 hr",BQL
same,Chromatographic distribution of radioactivity in rat plasma,"[1]; male, 4 hr",BQL
same,Estimated plasma concentration in rats,"[1]; male, 4 hr",BQL)
same,Chromatographic distribution of radioactivity in rat plasma,"[1]; male, 8 hr",BQL
same,Estimated plasma concentration in rats,"[1]; male, 8 hr",BQL
same,Matrix,[3],"P, U"
"O=C1NCCN2C[C@@H]3CCC[C@@H]3c3cccc1c32 [Metabolite M18, keto DCDQ]",% of total radioactivity in fecal extracts,[5],up to 16.4%
same,metabolite detected in feces,[5],detected

# From patent US20060111305A1, “Metabolites of certain [1,4]diazepino[6,7,1-ij]quinoline derivatives and methods of preparation and use thereof” (Wyeth, priority 2004, published 2006)
